{"source": "patent US8426342B2", "about": "“Method for weed control in lawn” (priority 2008, dated 2013)", "key": {"[1]": {"test_system": "Capsella bursa pastoris", "assay": "Greenhouse herbicidal effect in weed control ex. 6.2, 2- to 3-leaves stage", "assay_type": "in vivo", "conditions": "6 g a.i./ha", "from_the_text": "(§1) That means, when applying the combinations according to the invention, herbicidal effects are observed on a harmful plant species which exceed the formal total of the effects of the herbicides present when these are applied by themselves. Alternatively, it is observed in some cases that a lower application rate is required for the herbicide combination in order to achieve the same effect on a harmful plant species in comparison with the individual products.\n(§2) When the data observed already exceed the formal total (=E^A) of the data in the experiments with individual applications, they likewise exceed the expected value according to Colby, which is calculated using the formula below and is likewise regarded as an indication of synergism (cf. S. R. Colby; in Weeds 15 (1967) pp. 20 to 22): E=A+B−(A·B/100)\n(§3) In this formula: • A=action of active compound (A) in % at an application rate of a g of AS/ha; • B=action of active compound (B) in % at an application rate of b g of AS/ha; • E=expected value of the action of the combination (A)+(B) in % at the combined application rate a+b g of AS/ha.\n(§4) The data observed in the experiments show, at suitably low dosages, an action of the combinations which exceeds the expected values according to Colby (=E^C)."}, "[2]": {"test_system": "Lamium amplexcaule", "assay": "Effectivity testing against weed plants ex. 5.1, Abbott %", "assay_type": "in vivo, Lamium amplexicaule", "from_the_text": "(§5) Each plot was divided by different pre-treatments 1 week before application of the trial treatments: • A) Pre-treatment with glyphosate-isopropylammonium allowing to evaluate in this section the pre-emergence effect against weeds. • B) No pre-treatment, present winter annual weeds are received a post-emergence application.\n(§6) 2005, applied on dormant turf in winter\n(§7) Effectivity was rated in percent (%) herbicidal effect compared with untreated control according to the method of Abbott according to the formula [(X−Y)/X]100 where X is the absolute level/scoring of the control plants, Y is the level/scoring of the treated plants. 100% efficacy means full control; 0% efficacy means no control of the weed; all ratings above 80% are usually acceptable."}, "[3]": {"test_system": "Taraxacum officinalis", "assay": "Greenhouse herbicidal effect in weed control ex. 6.2, 1- to 2-leaves stage", "assay_type": "in vivo", "conditions": "6 g a.i./ha", "from_the_text": "as §1, §2, §3, §4"}, "[4]": {"test_system": "Cynodon dactylon (Bermuda grass)", "assay": "Phytotoxicity of the turf ex. 5.1, % injury vs untreated", "assay_type": "in vivo", "conditions": "157 DAT", "from_the_text": "as §5, §6\nAdditionally, phytotoxicity of the turf was rated as percent (%) injury compared with untreated control."}, "[5]": {"test_system": "Trifolium repens", "assay": "Effectivity testing against weed plants ex. 5.2, co-formulation/granules in tall fescue turf, early post for the weed, Abbott %", "assay_type": "in vivo", "conditions": "50 g a.i./ha", "from_the_text": "A co-formulation containing a mixture compounds no. […] Granules were applied with a shaker can.\nTurf grass species: Festuca arundinacea, variety (tall fescue grass)\nWeed species: Trifolium repens\nLocation: Sports turf, North Carolina, USA\nPlot size: 1.4 m^2 and 3 replicates per treatment\nApplication timing: 27 Mar. 2007, spring application, early post for the weed\nEffectivity was rated in percent (%) herbicidal effect compared with untreated control according to the method of Abbott mentioned above (see 5.1). 100% efficacy means full control; 0% efficacy means no control of the weed; all ratings above 80% are usually acceptable."}, "[6]": {"test_system": "Veronica arvensis", "assay": "Effectivity testing against weed plants ex. 5.1, Abbott %", "assay_type": "in vivo", "from_the_text": "as §5, §6, §7"}, "[7]": {"test_system": "Stellaria media", "assay": "Effectivity testing against weed plants ex. 5.1, Abbott %", "assay_type": "in vivo", "from_the_text": "as §5, §6, §7"}}, "data": [{"molecule": "Cc1ccc2c(c1)[C@H](Nc1nc(N)nc([C@@H](C)F)n1)[C@@H](C)C2", "note": "(stereo in doubt) [(A21)/(A22), indaziflam]", "values": [{"measurement": "Herbicidal effect (%) 7 DAT on Capsella bursa pastoris", "setting": "[1]", "result": 0, "unit": "%"}, {"measurement": "Herbicidal effect (%) on Lamium amplexcaule, Post-emergence application without pre-treatment", "setting": "[2]; 25 g a.i./ha, 124 DAT", "result": 91, "unit": "%"}, {"measurement": "Herbicidal effect (%) on Lamium amplexcaule, Pre-emergence application after pre-treatment", "setting": "[2]; 25 g a.i./ha, 124 DAT", "result": 58, "unit": "%"}, {"measurement": "Herbicidal effect (%) on Lamium amplexcaule, Post-emergence application without pre-treatment", "setting": "[2]; 25 g a.i./ha, 151 DAT", "result": 50, "unit": "%"}, {"measurement": "Herbicidal effect (%) on Lamium amplexcaule, Pre-emergence application after pre-treatment", "setting": "[2]; 25 g a.i./ha, 151 DAT", "result": 40, "unit": "%"}, {"measurement": "Herbicidal effect (%) on Lamium amplexcaule, Post-emergence application without pre-treatment", "setting": "[2]; 50 g a.i./ha, 124 DAT", "result": 89, "unit": "%"}, {"measurement": "Herbicidal effect (%) on Lamium amplexcaule, Pre-emergence application after pre-treatment", "setting": "[2]; 50 g a.i./ha, 124 DAT", "result": 100, "unit": "%"}, {"measurement": "Herbicidal effect (%) on Lamium amplexcaule, Post-emergence application without pre-treatment", "setting": "[2]; 50 g a.i./ha, 151 DAT", "result": 67, "unit": "%"}, {"measurement": "Herbicidal effect (%) on Lamium amplexcaule, Pre-emergence application after pre-treatment", "setting": "[2]; 50 g a.i./ha, 151 DAT", "result": 90, "unit": "%"}, {"measurement": "Herbicidal effect (%) on Lamium amplexcaule, Post-emergence application without pre-treatment", "setting": "[2]; 75 g a.i./ha, 124 DAT", "result": 83, "unit": "%"}, {"measurement": "Herbicidal effect (%) on Lamium amplexcaule, Pre-emergence application after pre-treatment", "setting": "[2]; 75 g a.i./ha, 124 DAT", "result": 100, "unit": "%"}, {"measurement": "Herbicidal effect (%) on Lamium amplexcaule, Post-emergence application without pre-treatment", "setting": "[2]; 75 g a.i./ha, 151 DAT", "result": 67, "unit": "%"}, {"measurement": "Herbicidal effect (%) on Lamium amplexcaule, Pre-emergence application after pre-treatment", "setting": "[2]; 75 g a.i./ha, 151 DAT", "result": 100, "unit": "%"}, {"measurement": "Herbicidal effect (%) 7 DAT on Taraxacum officinalis", "setting": "[3]", "result": 20, "unit": "%"}, {"measurement": "Phytotoxicity (%) on Turf", "setting": "[4]; 25 g a.i./ha, section with glyphosate pre-treatment (Table 20)", "result": 0, "unit": "%"}, {"measurement": "Phytotoxicity (%) on Turf", "setting": "[4]; 25 g a.i./ha, section without pre-treatment (Table 21)", "result": 0, "unit": "%"}, {"measurement": "Phytotoxicity (%) on Turf", "setting": "[4]; 50 g a.i./ha, section with glyphosate pre-treatment (Table 20)", "result": 0, "unit": "%"}, {"measurement": "Phytotoxicity (%) on Turf", "setting": "[4]; 50 g a.i./ha, section without pre-treatment (Table 21)", "result": 0, "unit": "%"}, {"measurement": "Phytotoxicity (%) on Turf", "setting": "[4]; 75 g a.i./ha, section with glyphosate pre-treatment (Table 20)", "result": 0, "unit": "%"}, {"measurement": "Phytotoxicity (%) on Turf", "setting": "[4]; 75 g a.i./ha, section without pre-treatment (Table 21)", "result": 0, "unit": "%"}, {"measurement": "Herbicidal effect (%) on Trifolium repens", "setting": "[5]; 30 DAT", "result": 60, "unit": "%"}, {"measurement": "Herbicidal effect (%) on Trifolium repens", "setting": "[5]; 381 DAT", "result": 90, "unit": "%"}, {"measurement": "Herbicidal effect (%) on Veronica arvensis, Post-emergence application without pre-treatment", "setting": "[6]; 25 g a.i./ha, 123 DAT", "result": 100, "unit": "%"}, {"measurement": "Herbicidal effect (%) on Veronica arvensis, Pre-emergence application after pre-treatment", "setting": "[6]; 25 g a.i./ha, 123 DAT", "result": 81, "unit": "%"}, {"measurement": "Herbicidal effect (%) on Veronica arvensis, Post-emergence application without pre-treatment", "setting": "[6]; 25 g a.i./ha, 157 DAT", "result": 94, "unit": "%"}, {"measurement": "Herbicidal effect (%) on Veronica arvensis, Pre-emergence application after pre-treatment", "setting": "[6]; 25 g a.i./ha, 157 DAT", "result": 100, "unit": "%"}, {"measurement": "Herbicidal effect (%) on Veronica arvensis, Post-emergence application without pre-treatment", "setting": "[6]; 50 g a.i./ha, 123 DAT", "result": 75, "unit": "%"}, {"measurement": "Herbicidal effect (%) on Veronica arvensis, Pre-emergence application after pre-treatment", "setting": "[6]; 50 g a.i./ha, 123 DAT", "result": 100, "unit": "%"}, {"measurement": "Herbicidal effect (%) on Veronica arvensis, Post-emergence application without pre-treatment", "setting": "[6]; 50 g a.i./ha, 157 DAT", "result": 100, "unit": "%"}, {"measurement": "Herbicidal effect (%) on Veronica arvensis, Pre-emergence application after pre-treatment", "setting": "[6]; 50 g a.i./ha, 157 DAT", "result": 100, "unit": "%"}, {"measurement": "Herbicidal effect (%) on Veronica arvensis, Post-emergence application without pre-treatment", "setting": "[6]; 75 g a.i./ha, 123 DAT", "result": 100, "unit": "%"}, {"measurement": "Herbicidal effect (%) on Veronica arvensis, Pre-emergence application after pre-treatment", "setting": "[6]; 75 g a.i./ha, 123 DAT", "result": 100, "unit": "%"}, {"measurement": "Herbicidal effect (%) on Veronica arvensis, Post-emergence application without pre-treatment", "setting": "[6]; 75 g a.i./ha, 157 DAT", "result": 100, "unit": "%"}, {"measurement": "Herbicidal effect (%) on Veronica arvensis, Pre-emergence application after pre-treatment", "setting": "[6]; 75 g a.i./ha, 157 DAT", "result": 100, "unit": "%"}, {"measurement": "Herbicidal effect (%) on Stellaria media, Post-emergence application without pre-treatment", "setting": "[7]; 25 g a.i./ha, 124 DAT", "result": 100, "unit": "%"}, {"measurement": "Herbicidal effect (%) on Stellaria media, Pre-emergence application after pre-treatment", "setting": "[7]; 25 g a.i./ha, 124 DAT", "result": 75, "unit": "%"}, {"measurement": "Herbicidal effect (%) on Stellaria media, Post-emergence application without pre-treatment", "setting": "[7]; 25 g a.i./ha, 151 DAT", "result": 100, "unit": "%"}, {"measurement": "Herbicidal effect (%) on Stellaria media, Pre-emergence application after pre-treatment", "setting": "[7]; 25 g a.i./ha, 151 DAT", "result": 71, "unit": "%"}, {"measurement": "Herbicidal effect (%) on Stellaria media, Post-emergence application without pre-treatment", "setting": "[7]; 50 g a.i./ha, 124 DAT", "result": 100, "unit": "%"}, {"measurement": "Herbicidal effect (%) on Stellaria media, Pre-emergence application after pre-treatment", "setting": "[7]; 50 g a.i./ha, 124 DAT", "result": 100, "unit": "%"}, {"measurement": "Herbicidal effect (%) on Stellaria media, Post-emergence application without pre-treatment", "setting": "[7]; 50 g a.i./ha, 151 DAT", "result": 100, "unit": "%"}, {"measurement": "Herbicidal effect (%) on Stellaria media, Pre-emergence application after pre-treatment", "setting": "[7]; 50 g a.i./ha, 151 DAT", "result": 100, "unit": "%"}, {"measurement": "Herbicidal effect (%) on Stellaria media, Post-emergence application without pre-treatment", "setting": "[7]; 75 g a.i./ha, 124 DAT", "result": 100, "unit": "%"}]}]}
